According to patent US20180200233A1, “COMPOSITIONS FOR PREVENTING CANCERS ASSOCIATED WITH HUMAN PAPILLOMA VIRUSES” (Loma Linda University, priority 2015, published 2018):

How the values were obtained:
[1] = test system: C33A cells; experiment: MTT cell viability, HPV- C33A cells with TRAIL; type: cell-based, human; details: 100 μM myricetin or 50 μM spinacine for 4 h
Description: FIGS. 5A-B are graphs showing myricetin and spinacine (5) re-sensitized HPV^+, but not HPV^−, cells to treatment with TRAIL. SiHa (2×10^4 cells per well) and C33A cells (1×10^4 cells per well) were seeded into a 96-well plate and allowed to incubate overnight, then cells were pre-treated in the presence or absence of myricetin (100 μM) (FIG. 5A) or spinacine (50 μM) (FIG. 5B) for 4 h. The indicated concentration of TRAIL, along with cycloheximide (5 μg/ml) was added and cells were allowed to incubate overnight. Cell viability was measured by MTT assay, and the viability of cells untreated with TRAIL was set at 100%. Experiments were performed in triplicate, and error bars indicate the standard deviation.
(§1) The extracellular domain of human TRAIL was cloned into a pTriEx expression plasmid containing N-terminal Hisx6 tag. His-TRAIL was expressed in the E. coli BL-21 pLys strain and purified as previously described. Doxorubicin and cisplatin were purchased from Sigma. His-TRAIL, doxorubicin, and cisplatin were diluted in PBS to the desired concentration before using. […] All experiments were repeated at least three times (three biological replicates, carried out on different days), with each experimental group measured in triplicate within each of these individual experiments. […]

[2] = test system: SiHa cells; experiment: in vitro; type: cell-based, human
Description: FIGS. 3A-E are graphs providing data regarding resistance of HPV^+ SiHa cells to TRAIL-, cisplatin- and […] apoptosis, in the presence and absence of small molecules as disclosed herein. (FIG. 3A) HPV^+ SiHa cells are resistant to TRAIL-induced apoptosis as compared to the human osteosarcoma cell line U2OS. Cells (2×10^4 cells per well) were seeded into a 96-well plate, allowed to incubate overnight, and then treated with indicated concentration of TRAIL in the presence of cycloheximide (5 μg/ml). The viability of cells was measured after overnight incubation using the MTT assay; the viability of cells untreated with TRAIL was set at 100% for each group. (FIG. 3B) The indicated concentrations of three small molecules were added to SiHa cells, and an MTT assay was preformed after overnight incubation. The viability of cells untreated with small molecules was set as 100%. (FIG. 3C) The indicated concentrations of myricetin or spinacine were added 4 h prior to TRAIL (100 ng/ml) in the presence of cycloheximide (5 μg/ml) and incubated at 37° C. overnight. The viability of cells untreated with small molecules was set at 100%. (FIG. 3D and FIG. 3E) SiHa cells (2×10^4 cells per well) were seeded into a 96-well plate and allowed to incubate overnight. 100 μM of myricetin and 50 μM of spinacine were added 4 h prior to either (FIG. 3D) doxorubicin or (FIG. 3E) cisplatin. Cell viability was measured after overnight incubation using the MTT assay, and the viability of cells untreated with either myricetin or spinacine was set at 100%. Experiments were performed in triplicate, and error bars indicate the standard deviation.
The molecules were then tested to determine whether those that block E6/caspase 8 binding in vitro could also act in the context of a cell. SiHa cells are an HPV^+ cell line, derived from a cervical carcinoma, which serves as a commonly used model for HPV-associated malignancies. To determine whether HPV^+ SiHa cells are resistant to TRAIL-induced apoptosis, SiHa cells were treated with TRAIL and cell viability was assessed. TRAIL-sensitive, HPV^− U2OS cells served as a positive control. […] Myricetin and/or spinacine were tested to determine if they could sensitize these HPV^+ cells to TRAIL-induced apoptosis. […] Table 2 lists and compares the concentrations of the three tested compounds required to induce death in 50% of SiHa cells in the presence or absence of TRAIL.
as §1, with “using. To measure cell survival following treatment with TRAIL, cisplatin and doxorubicin, SiHa (2×10^4/well), C33A (1×10^4/well), and HNSCC cells (2×10^4/well) were seeded into 96-well plates and allowed to adhere overnight. Small molecules at the desired concentration were added and incubated at 37° C. for 4 h. As indicated, TRAIL, cisplatin or doxorubicin was then added.” for “using.”

[3] = target: T1, GST-E6/His-caspase 8 (Human papillomavirus type 16, UniProt P03126); details: Yuan et al. 2012; cited from earlier work
T1 construct: made in house
T1 sequence (P03126 whole entry): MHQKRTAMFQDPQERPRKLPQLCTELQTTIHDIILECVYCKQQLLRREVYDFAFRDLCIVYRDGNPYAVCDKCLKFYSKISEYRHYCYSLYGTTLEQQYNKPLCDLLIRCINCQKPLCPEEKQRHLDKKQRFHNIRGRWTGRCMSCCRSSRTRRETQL

[4] = test system: UPCI-SCC90-UP-Clone 35 (#90) cells; experiment: MTT cell viability, HPV+ HNSCC cell line #90 with doxorubicin; type: cell-based; details: 2 μM doxorubicin
Description: FIGS. 8A-B includes graphs showing myricetin and spinacine (5) re-sensitized HPV^+, but not HPV^−, HNSCC cell lines to treatment with doxorubicin. One HPV^− (FIG. 8A; #84) and one HPV^+ (FIG. 8B; #90) head and neck cancer cell line (2×10^4 cells per well) were seeded into 96-well plates and allowed to incubate overnight, then cells were pre-treated with myricetin or spinacine (0-12.5 μM) for 4 h. 2 μM of doxorubicin was added and cells were allowed to incubate overnight. Cell viability was measured by MTT assay, and the viability of cells untreated with small molecules was set at 100%. Experiments were performed in triplicate, and error bars indicate the standard deviation.
The results described above indicate that myricetin and spinacine sensitize HPV^+ HNSCC cells to TRAIL-induced apoptosis. To determine whether this sensitization also occurs in the context of chemotherapeutic agents, several HNSCC cell lines were tested for their responses to combination treatments.
as §1, with “described.” for “described. Doxorubicin and cisplatin were purchased from Sigma. His-TRAIL, doxorubicin, and cisplatin were diluted in PBS to the desired concentration before using.”

[5] = target: T2, GST-E6 (Human papillomavirus type 16, UniProt P03126); experiment: Direct binding to E6 (FIG. 9); parameters: species or system HPV 16
T2 construct: made in house
T2 sequence (P03126 whole entry): as above

[6] = Galli et al. 1989, 13-week oral study in rats, spinacine hydrochloride; cited from earlier work

| SMILES | response of C33A cells to TRAIL-mediated apoptosis after pre-treatment (in words) [1] | toxicity to SiHa cells in the absence of TRAIL (in words) [2] | inhibition of the E6/caspase 8 interaction in vitro (in words) [3] | cell death of HPV+ #90 cells with doxorubicin plus small molecule (in words) ([4]; small molecules 0-12.5 μM) | sensitization of #90 to doxorubicin ([4]; concentration of 12.5 μM) | binding to GST-E6 (in words) ([5]; FIG. 9) | N (binding stoichiometry) ([5]; spinacine binding to GST-E6, FIG. 9) | safety and tolerability (in words) [6] |
| --- | --- | --- | --- | --- | --- | --- | --- | --- |
| O=c1c(O)c(-c2cc(O)c(O)c(O)c2)oc2cc(O)cc(O)c12 [Myricetin, reference compound] | remained resistant | low toxicity | can inhibit the E6/caspase 8 interaction in vitro |  |  |  |  |  |
| O=C(O)C1Cc2[nH]cnc2CN1 (stereo not drawn) [Compound 5, 4,5,6,7-Tetrahydro-1H-imidazo(4,5-c)pyridine-6-carboxylic acid] |  | low toxicity |  | higher efficiency than did myricetin | up to 50% | able to bind to GST-E6 | about 0.5 | safe, well-tolerated |
